# From ChEMBL document CHEMBL3045129, “Synthesis and anti-inflammatory activity of some pyrazole derivatives” (Med Chem Res, 2012)
# Legend:
# Rattus norvegicus [1] = test: Anti-inflammatory activity inRattus norvegicus albino (rat) assessed as inhibition of carrageenan-induced paw edema at 100 mg/kg, po administered 3 hr prior challenge measured after 1 hr post challenge; format: functional
# Rattus norvegicus [2] = test: Anti-inflammatory activity inRattus norvegicus albino (rat) assessed as inhibition of carrageenan-induced paw edema at 100 mg/kg, po administered 2 hr prior challenge measured after 1 hr post challenge; format: functional
# Rattus norvegicus [3] = test: Anti-inflammatory activity inRattus norvegicus albino (rat) assessed as inhibition of carrageenan-induced paw edema at 100 mg/kg, po administered 1 hr prior challenge measured after 1 hr post challenge; format: functional
# Rattus norvegicus [4] = test: Toxicity inRattus norvegicus albino (rat) assessed as ulcerogenicity at 100 mg/kg, po measured after 1 hr; format: organism-based; design: dose 100 mg/kg, route oral; settings: in vivo
Compound,inhibition in vivo at 100 mg/kg (Rattus norvegicus [1]),inhibition in vivo at 100 mg/kg (Rattus norvegicus [2]),inhibition in vivo at 100 mg/kg (Rattus norvegicus [3]),UI (Rattus norvegicus [4])
Cc1cc(-c2ccc(Cl)cc2)n(-c2ccc(S(=O)(=O)Nc3nccs3)cc2)n1,62%,44.3%,34.1%,
CCCNc1nnc(Cn2nc(C)cc2-c2ccccc2)s1,54.1%,42.2%,26.9%,
Cc1cc(C)n(Cc2n[nH]c(=S)n2-c2ccc([N+](=O)[O-])cc2)n1,36.4%,27.1%,16.6%,
COc1ccc(NC(=S)NNC(=O)Cn2nc(C)cc2C)cc1,46.4%,41.4%,30.3%,
COc1ccc2c(c1)c(CC(=O)O)c(C)n2C(=O)c1ccc(Cl)cc1 [INDOMETHACIN],60.8%,40.1%,31.5%,20.4
Cc1cc(-c2ccc(Cl)cc2)n(Cc2n[nH]c(=S)o2)n1,39.2%,31.2%,15.4%,
Cc1cccc(NC(=S)NNC(=O)Cn2nc(C)cc2C)c1,40.8%,22.9%,12.3%,
Cc1cc(-c2ccccc2)n(Cc2n[nH]c(=S)o2)n1,48.7%,34.2%,26.3%,
Cc1cc(-c2ccc(Cl)cc2)n(-c2ccc(S(N)(=O)=O)cc2)n1,62.5%,49.8%,37.2%,5.2
Cc1cc(C)n(CC(=O)NNC(=S)Nc2ccc([N+](=O)[O-])cc2)n1,62.7%,44.4%,36.1%,18.6
Cc1cc(C)n(Cc2n[nH]c(=S)o2)n1,34.9%,21.5%,14.4%,
Cc1cc(C)n(Cc2nnc(Nc3ccc([N+](=O)[O-])cc3)s2)n1,64.9%,50%,37.5%,15.6
Cc1ccc(-c2cc(C(F)(F)F)nn2-c2ccc(S(N)(=O)=O)cc2)cc1 [CELECOXIB],63.8%,45.8%,31.4%,
Cc1cccc(-n2c(Cn3nc(C)cc3C)n[nH]c2=S)c1,33.4%,22.7%,13.2%,
Cc1cc(-c2ccc(Cl)cc2)n(Cc2nnc(Nc3ccc([N+](=O)[O-])cc3)s2)n1,61.1%,45%,32.8%,
